From patent publication US8515150B2, “Mathematical image analysis based cell reprogramming with applications for epigenetic and non-epigenetic base induced pluripotent stem cell derivation” (The Charles Stark Draper Laboratory, Inc., priority 2009, dated 2013)

Legend:
hESC [1] = conditions: independent of feeders or recombinant growth factors; cited from earlier work
hESC [2] = assay: TSA toxicity in hESC; type: cell-based, human
fibroblasts = conditions: added to fibroblasts, alone; cited from earlier work
hESC [3] = assay: BMP4-induced differentiation of hESC colonies; type: cell-based, human; conditions: hESC line WA07, 100 ng/ml BMP4, 4 days; confirmed by CDX2 immunostaining
Description: Pluripotent hESC cultures, line WA07 (a, d, g, i) were compared to hESC that were differentiated in vitro for 4 days in culture with 100 ng/ml BMP4 (b, e, h, j). The squamous epithelial monolayer that was formed is trophectoderm, found in the outer shell of blastocysts and destined to form the placenta. Fixed colonies were stained with the DNA dye, Hoechst 33342 (a, b) and with antibodies to the pluripotency marker OCT4 (d) and the trophectoderm marker, CDX2 (e). Morphological differences that are characteristic of the spreading colonies include an increase in cell (c) and nuclear size (f). The Hoechst image of 4 colonies were analyzed for nuclear size and number of nuclei per colony area (average cell area) and differences between pluripotent and trophectoderm colony morphology were significant at p<0.05 by Students T test. Colony morphology in live cells (g, h), not fixed and immunostained as was performed in (a-f), is provided by the distribution of spatial frequencies in the image (i, j). […] Spatial frequencies are higher in pluripotent than in TE colonies and can be more completely measured using wavelet analysis, a generalized 2D, multiscalar measure of image texture. […] Empirical probability density functions (k-l) for three detail subbands of the line scans in (i) and (j) quantify the concept of spatial frequency. […]

CC(/C=C/C(=O)NO)=C\[C@@H](C)C(=O)c1ccc(N(C)C)cc1 [TSA, trichostatin A]
effect on self-renewal (hESC [1]): activates a self-renewal program in hESC | highest concentration without toxic effects (hESC [2]): 1 nM

FGF2: single growth factor added to media or fibroblasts
effect on expression of endogenous pluripotency markers (fibroblasts): increased expression of endogenous pluripotency markers

B1: BMP4: growth factor bone morphogenic protein, BMP4 (protein, UniProt P12644 293-408, looked up)
Bone morphogenetic protein 4: SPKHHSQRARKKNKNCRRHSLYVDFSDVGWNDWIVAPPGYQAFYCHGDCPFPLADHLNSTNHAIVQTLVNSVNSSIPKACCVPTELSAISMLYLDEYDKVVLKNYQEMVVEGCGCR
differentiation outcome (hESC [3]): form trophectoderm
